Read-outs that look alike come from different tables or passages of the source.
Tests used:
Assay in all cases: 96-well microtiter plate assay, fungal growth inhibition
[1] = system: C. gloeosporioides; format: cell-based, Colletotrichum gloeosporioides; conditions: for Percent inhibition−Percent Stimulation±SEM: C. gloeosporioides; for inhibition at 0.3 µM / inhibition at 3 µM / inhibition at 30 µM: Colletotrichum gloeosporioides, read-out: Percent inhibition−Percent Stimulation±SEM
Text: (§1) Pathogen production. Isolates of Colletotrichum acutatum Simmonds, Colletotrichum fragariae Brooks, and Colletotrichum gloeosporioides (Penz.) Penz. & Sacc. in Penz. were obtained from B. J. Smith, USDA, ARS, Small Fruit Research Station, Poplarville, Miss. Colletotrichum fragariae (isolate CF63), C. acutatum (isolate CAGoff), and C. gloeosporioides (isolate CG162) were used for all pathogen and bioautography studies. Isolate CF63 is one of the most virulent isolates at infecting strawberry plants and inducing both crown and fruit rot (Smith and Black, 1990). CF63, CAGoff, and CG162 were used as standard test isolates because of our extensive knowledge of these isolates and their known fungicide sensitivity profiles in both bioautography and microtiter formats. The three Colletotrichum species were isolated from strawberry (Fragaria x ananassa Duchesne). Botrytis cinerea Pers.: Fr, was isolated from commercial grape (Vitis vinifera L.) and Fusarium oxysporum Schlechtend: Fr from orchid (Cynoches sp.). Phomopsis viticola (Sacc.) and P. obscurans (Ellis & Everh.) Sutton were from Mike A. Ellis, Ohio State University, Wooster, Ohio. Fungi were grown on potato-dextrose agar (PDA, Difco, Detroit, Mich.) in 9 cm petri dishes and incubated in a growth chamber at 24±2° C. and under cool-white fluorescent lights ([…]·m^−2·sec^−1 light) with 12 hour photoperiod.
(§2) Inoculum preparation. Conidia were harvested from 7-10 day-old cultures by flooding plates with 5 mL of sterile distilled water and dislodging conidia by softly brushing the colonies with an L-shaped glass rod. Conidial suspensions were filtered through sterile miracloth (Calbiochem-Novabiochem Corp., La Jolla, Calif.) to remove mycelia. Conidia concentrations were determined photometrically, from a standard curve based on the percent of transmittance (% T) at 625 nm and suspensions were then adjusted with sterile distilled water to a concentration of 1.0×10^6 conidia/mL.
(§3) Microtiter assay. A standardized 96-well microtiter plate assay developed for discovery of natural product fungicidal agents was used to evaluate naturally occurring antifungal agents from Macaranga monanara. A 96-well microtiter assay was used to determine sensitivity of B. cinerea, C. acutatum, C. fragariae, C. gloeosporioides, F. oxysporum, Phomopsis viticola, and P. obscurans to the various antifungal agents in comparison with known fungicidal standards. Vinclozolin, captan, and thiabendazole, which represent three different modes of action, were used as standards in this experiment. Each fungus was challenged in a dose-response format using test compounds where the final treatment concentrations were 0.3, 3.0 and 30.0 μM. Microtiter plates (Nunc MicroWell, untreated; Roskilde, Denmark) were covered with a plastic lid and incubated in a growth chamber as described previously for fungal growth. Growth was then evaluated by measuring absorbance of each well at 620 nm using a microplate photometer (Packard Spectra Count, Packard Instrument Co., Downers Grove, Ill.). Microtiter plates (Nunc MicroWell, untreated; Roskilde, Denmark) were covered with a plastic lid and incubated in a growth chamber at 24±1° C. and 12 hour photoperiod under 60±5 μmol light. Growth was then evaluated by measuring absorbance of each well at 620 nm using a microplate photometer (Packard Spectra Count, Packard Instrument Co., Downers Grove, Ill.).
(§4) Microbioassy Experimental Design. Chemical sensitivity each of B. cinerea, C. acutatum, C. fragariae, C. gloeosporiodes, F. oxysporum, Phomopsis viticola, and P. obscurans was evaluated using 96-well plate microbioassay format. Each chemical was evaluated in duplicate at each dose (0.3, 3.0 and 30.0 μM). […]

[2] = system: C. acutatum; format: cell-based, Colletotrichum acutatum; conditions: for Percent inhibition−Percent Stimulation±SEM: C. acutatum; for inhibition at 0.3 µM / inhibition at 3 µM / inhibition at 30 µM: Colletotrichum acutatum, read-out: Percent inhibition−Percent Stimulation±SEM
Text: as §1, §2, §3, §4

[3] = system: C. fragariae; format: cell-based, Colletotrichum fragariae; conditions: for Percent inhibition−Percent Stimulation±SEM: C. fragariae; for inhibition at 0.3 µM / inhibition at 3 µM / inhibition at 30 µM: Colletotrichum fragariae, read-out: Percent inhibition−Percent Stimulation±SEM
Text: as §1, §2, §3, §4

[4] = system: B. cinerea; format: cell-based, Botrytis cinerea; conditions: for Percent inhibition−Percent Stimulation±SEM: B. cinerea; for inhibition at 0.3 µM / inhibition at 3 µM / inhibition at 30 µM: Botrytis cinerea, read-out: Percent inhibition−Percent Stimulation±SEM
Text: as §1, §2, §3, §4

[5] = system: F. oxysporum; format: cell-based, Fusarium oxysporum; conditions: for Percent inhibition−Percent Stimulation±SEM: F. oxysporum; for inhibition at 0.3 µM / inhibition at 3 µM / inhibition at 30 µM: Fusarium oxysporum, read-out: Percent inhibition−Percent Stimulation±SEM
Text: as §1, §2, §3, §4

Which “Percent inhibition−Percent Stimulation±SEM” value ([1]; 0.3 μM, 48 hrs) does the source give for `COc1cnc2c3c(nccc13)-c1ccccc1C2=O` [4-methoxysampangine] here?
Its value is −48.5 ± 6.7%.

And the “Percent inhibition−Percent Stimulation±SEM” value ([1]; 0.3 μM, 72 hrs)?
Its value is −15.6 ± 1.9%.

What about the “Percent inhibition−Percent Stimulation±SEM” value ([1]; 3.0 μM, 48 hrs) of the same compound?
Its value is −94.4 ± 0.9%.

What about the “Percent inhibition−Percent Stimulation±SEM” value ([1]; 3.0 μM, 72 hrs) of the same compound?
The value was −91.1 ± 2.1%.

What about the “Percent inhibition−Percent Stimulation±SEM” value ([1]; 30 μM, 48 hrs) of the same compound?
Its value is −95.9 ± 3.4%.

What about the “Percent inhibition−Percent Stimulation±SEM” value ([1]; 30 μM, 72 hrs) of the same compound?
The value was −79.7 ± 6.0%.

And the “Percent inhibition−Percent Stimulation±SEM” value ([2]; 0.3 μM, 48 hrs)?
Its value is −5.1 ± 7.8%.

What about the “Percent inhibition−Percent Stimulation±SEM” value ([2]; 0.3 μM, 72 hrs) of the same compound?
The value was −0.3 ± 6.4%.

And the “Percent inhibition−Percent Stimulation±SEM” value ([2]; 3.0 μM, 48 hrs)?
Its value is −75.1 ± 6.8%.

What about the “Percent inhibition−Percent Stimulation±SEM” value ([2]; 3.0 μM, 72 hrs) of the same compound?
The value was −44.1 ± 6.5%.

And the “Percent inhibition−Percent Stimulation±SEM” value ([2]; 30 μM, 48 hrs)?
The value was −51.3 ± 6.2%.

What about the “Percent inhibition−Percent Stimulation±SEM” value ([2]; 30 μM, 72 hrs) of the same compound?
The value was −25.4 ± 5.4%.

What about the “Percent inhibition−Percent Stimulation±SEM” value ([3]; 0.3 μM, 48 hrs) of the same compound?
Its value is −15.0 ± 7.5%.

What about the “Percent inhibition−Percent Stimulation±SEM” value ([3]; 0.3 μM, 72 hrs) of the same compound?
The value was −30.2 ± 7.4%.

What about the “Percent inhibition−Percent Stimulation±SEM” value ([3]; 3.0 μM, 48 hrs) of the same compound?
The value was −75.2 ± 6.7%.

And the “Percent inhibition−Percent Stimulation±SEM” value ([3]; 3.0 μM, 72 hrs)?
The value was −44.3 ± 6.5%.

What about the “Percent inhibition−Percent Stimulation±SEM” value ([3]; 30 μM, 48 hrs) of the same compound?
The value was −67.9 ± 13.6%.

And the “Percent inhibition−Percent Stimulation±SEM” value ([3]; 30 μM, 72 hrs)?
The value was −39.6 ± 6.3%.

And the “Percent inhibition−Percent Stimulation±SEM” value ([4]; 0.3 μM, 48 hrs)?
The value was −23.0 ± 14.4%.

And the “Percent inhibition−Percent Stimulation±SEM” value ([4]; 0.3 μM, 72 hrs)?
Its value is −4.8 ± 12.6%.

And the “Percent inhibition−Percent Stimulation±SEM” value ([4]; 3.0 μM, 48 hrs)?
Its value is −59.2 ± 6.7%.

And the “Percent inhibition−Percent Stimulation±SEM” value ([4]; 3.0 μM, 72 hrs)?
Its value is −18.4 ± 5.4%.

What about the “Percent inhibition−Percent Stimulation±SEM” value ([4]; 30 μM, 48 hrs) of the same compound?
Its value is −20.3 ± 21.8%.

And the “Percent inhibition−Percent Stimulation±SEM” value ([4]; 30 μM, 72 hrs)?
The value was 19.0 ± 14.3%.

What about the “Percent inhibition−Percent Stimulation±SEM” value ([5]; 0.3 μM, 48 hrs) of the same compound?
The value was −10.3 ± 4.7%.

And the “Percent inhibition−Percent Stimulation±SEM” value ([5]; 0.3 μM, 72 hrs)?
The value was 2.9 ± 4.2%.

And the “Percent inhibition−Percent Stimulation±SEM” value ([5]; 3.0 μM, 48 hrs)?
The value was −66.8 ± 5.5%.

What about the “Percent inhibition−Percent Stimulation±SEM” value ([5]; 3.0 μM, 72 hrs) of the same compound?
Its value is −33.5 ± 1.9%.

And the “Percent inhibition−Percent Stimulation±SEM” value ([5]; 30 μM, 48 hrs)?
Its value is −43.6 ± 2.7%.

And the “Percent inhibition−Percent Stimulation±SEM” value ([5]; 30 μM, 72 hrs)?
The value was −23.5 ± 1.6%.

For `CC1(C(=O)Nc2ccc(O)c(Cl)c2Cl)CCCCC1` [Fenhexamid], which inhibition at 0.3 µM ([1]; 48 h) is on record?
The inhibition at 0.3 µM was -21.6 ± 9%.

What about the inhibition at 3 µM ([1]; 48 h) of the same compound?
Its inhibition at 3 µM is -32.5 ± 6.4%.

What about the inhibition at 30 µM ([1]; 48 h) of the same compound?
Its inhibition at 30 µM is -0.3 ± 3%.

What about the inhibition at 0.3 µM ([1]; 72 h) of the same compound?
Its inhibition at 0.3 µM is -11.3 ± 5.5%.

And the inhibition at 3 µM ([1]; 72 h)?
The inhibition at 3 µM was -16 ± 2%.

What about the inhibition at 30 µM ([1]; 72 h) of the same compound?
The inhibition at 30 µM was 6.5 ± 4.2%.

What about the inhibition at 0.3 µM ([2]; 48 h) of the same compound?
Its inhibition at 0.3 µM is -21.6 ± 6.7%.

And the inhibition at 3 µM ([2]; 48 h)?
Its inhibition at 3 µM is -6.5 ± 4.9%.

What about the inhibition at 30 µM ([2]; 48 h) of the same compound?
The inhibition at 30 µM was 13.8 ± 5.3%.

And the inhibition at 0.3 µM ([2]; 72 h)?
The inhibition at 0.3 µM was -20.4 ± 5.6%.

What about the inhibition at 3 µM ([2]; 72 h) of the same compound?
The inhibition at 3 µM was -21.8 ± 4.3%.

And the inhibition at 30 µM ([2]; 72 h)?
Its inhibition at 30 µM is 1.5 ± 6.7%.

And the inhibition at 0.3 µM ([3]; 48 h)?
The inhibition at 0.3 µM was -30.2 ± 10%.

And the inhibition at 3 µM ([3]; 48 h)?
The inhibition at 3 µM was -13.6 ± 6.3%.

And the inhibition at 30 µM ([3]; 48 h)?
The inhibition at 30 µM was 19.9 ± 3.4%.

What about the inhibition at 0.3 µM ([3]; 72 h) of the same compound?
The inhibition at 0.3 µM was -12 ± 6.7%.

What about the inhibition at 3 µM ([3]; 72 h) of the same compound?
The inhibition at 3 µM was -9.9 ± 4.3%.

And the inhibition at 30 µM ([3]; 72 h)?
The inhibition at 30 µM was 19.5 ± 5.4%.

What about the inhibition at 0.3 µM ([4]; 48 h) of the same compound?
Its inhibition at 0.3 µM is 82.9 ± 31.5%.

What about the inhibition at 3 µM ([4]; 48 h) of the same compound?
The inhibition at 3 µM was 34.2 ± 29.1%.

What about the inhibition at 30 µM ([4]; 48 h) of the same compound?
Its inhibition at 30 µM is 49.2 ± 32.1%.

And the inhibition at 0.3 µM ([4]; 72 h)?
Its inhibition at 0.3 µM is 71.4 ± 24.7%.

What about the inhibition at 3 µM ([4]; 72 h) of the same compound?
The inhibition at 3 µM was 42.7 ± 20.6%.

And the inhibition at 30 µM ([4]; 72 h)?
Its inhibition at 30 µM is 40.9 ± 22.6%.

And the inhibition at 0.3 µM ([5]; 48 h)?
The inhibition at 0.3 µM was 3 ± 4.4%.

And the inhibition at 3 µM ([5]; 48 h)?
Its inhibition at 3 µM is 15.3 ± 1.7%.

What about the inhibition at 30 µM ([5]; 48 h) of the same compound?
Its inhibition at 30 µM is 28.5 ± 1.3%.

What about the inhibition at 0.3 µM ([5]; 72 h) of the same compound?
The inhibition at 0.3 µM was -0.1 ± 2.8%.

And the inhibition at 3 µM ([5]; 72 h)?
The inhibition at 3 µM was 3.7 ± 2.6%.

What about the inhibition at 30 µM ([5]; 72 h) of the same compound?
Its inhibition at 30 µM is 21.2 ± 2.1%.

— patent publication US6844353B2, “Fungicidal properties of sampangine and its analogs to agriculturally important fungal plant pathogens” (The United States of America as represented by the …, priority 2003, dated 2005)
